Measured values reported in patent publication US9556201B2, “Bicyclic pyridines and analogs as sirtuin modulators” (GLAXOSMITHKLINE LLC, priority 2009, dated 2017).

How the values were obtained:
[1] = target: T1, SIRT1 (Homo sapiens, UniProt Q96EB6); assay: Mass spectrometry based assay to identify modulators of SIRT1 activity (deacetylation of p53-based acetylated peptide substrate); type: biochemical; settings: SIRT1 activation; for Emax: 25 min, read-out: % FOLD ACT. (percent maximum fold activation)
T1 sequence (Q96EB6 1-747): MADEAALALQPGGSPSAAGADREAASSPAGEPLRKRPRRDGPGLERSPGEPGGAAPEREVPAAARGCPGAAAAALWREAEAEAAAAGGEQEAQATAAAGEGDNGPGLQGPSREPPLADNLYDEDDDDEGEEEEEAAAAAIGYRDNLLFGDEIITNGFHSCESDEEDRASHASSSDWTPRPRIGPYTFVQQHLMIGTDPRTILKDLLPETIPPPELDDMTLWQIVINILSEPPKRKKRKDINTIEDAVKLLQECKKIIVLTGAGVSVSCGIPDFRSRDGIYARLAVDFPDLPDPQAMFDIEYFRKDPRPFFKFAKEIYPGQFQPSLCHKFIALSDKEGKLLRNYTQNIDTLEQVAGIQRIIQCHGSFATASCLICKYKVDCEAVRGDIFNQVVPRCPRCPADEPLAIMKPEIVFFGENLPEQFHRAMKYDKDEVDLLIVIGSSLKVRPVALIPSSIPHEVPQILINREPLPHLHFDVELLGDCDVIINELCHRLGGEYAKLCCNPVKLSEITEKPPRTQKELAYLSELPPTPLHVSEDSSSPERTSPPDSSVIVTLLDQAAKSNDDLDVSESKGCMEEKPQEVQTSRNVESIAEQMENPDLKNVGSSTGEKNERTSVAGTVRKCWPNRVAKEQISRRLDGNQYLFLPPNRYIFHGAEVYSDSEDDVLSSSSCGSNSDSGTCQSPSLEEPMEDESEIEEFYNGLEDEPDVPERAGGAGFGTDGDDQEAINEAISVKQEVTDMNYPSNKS
Procedure, shortened: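 Deacetylation of a modified p53 acetyl-lysine peptide ([…], 5TMR-labelled, Nle for Met) by 10 nM N-His SIRT1 with 120 μM βNAD+, pH 8, 25 min, 25 °C. Substrate and product masses measured by MS after formic acid quench; nicotinamide defines maximal inhibition.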

[2] = tested on: TNF; assay: TNF IC50 (column of Table 1; method not shown); type: cell-based

Row | Emax [1] | EC1.5 [1] | IC50 [2] | SMILES
1 | > 200% | A (EC1.5<1.0 μM) | ≥ 20 µM | Cc1cc(NC(=O)N2CCOc3ccc(-c4ccc5c(c4)CCO5)nc32)cc(C)n1 [Compound 574]
2 | > 200% | A (EC1.5<1.0 μM) | ≥ 20 µM | Cc1csc(NC(=O)N2CCCOc3ccc(-c4cccc(C(F)(F)F)c4)nc32)n1 [Compound 578]
3 | > 200% | A (EC1.5<1.0 μM) | < 20 µM | Cc1cncc(NC(=O)N2CCCc3ccc(-c4cccc(C(F)(F)F)c4)nc32)c1 [Compound 585, N-(5-methylpyridin-3-yl)-7-(3-(trifluoromethyl)phenyl)-3,4-dihydro-1,8-naphthyridine-1(2H)-carboxamide]
4 | > 200% | A (EC1.5<1.0 μM) | ≥ 20 µM | Cc1csc(NC(=O)N2CCCc3ccc(-c4cccc(C(F)(F)F)c4)nc32)n1 [Compound 588]
5 | > 200% | A (EC1.5<1.0 μM) | < 20 µM | O=C(Nc1ccnc(N2CCC2)c1)N1CCCc2ccc(-c3cccc(C(F)(F)F)c3)nc21 [Compound 589]
6 | > 200% | A (EC1.5<1.0 μM) | < 20 µM | Cc1cncc(NC(=O)N2CCCc3ccc(-c4cccc(F)c4)nc32)c1 [Compound 590]
7 | > 200% | A (EC1.5<1.0 μM) | ≥ 20 µM | Cc1cncc(NC(=O)N2CC(C)(C)Oc3ccc(-c4cccc(N(C)C)c4)nc32)c1 [Compound 593]
8 | > 200% | A (EC1.5<1.0 μM) | < 20 µM | Cc1cc(NC(=O)N2CCCc3ccc(-c4cccc(F)c4)nc32)cc(C)n1 [Compound 595]
9 | > 200% | A (EC1.5<1.0 μM) | < 20 µM | Cc1cc(NC(=O)N2CC(C)(C)Oc3ccc(-c4cccc(N(C)C)c4)nc32)cc(C)n1 [Compound 597]
10 | > 200% | A (EC1.5<1.0 μM) | < 20 µM | Cc1cncc(NC(=O)N2CCCOc3ccc(-c4cccc(Cl)c4)nc32)c1 [Compound 598]
11 | > 200% | A (EC1.5<1.0 μM) | ≥ 20 µM | Cc1cncc(NC(=O)N2CCCc3ccc(-c4cccc(Cl)c4)nc32)c1 [Compound 599]
12 | > 200% | A (EC1.5<1.0 μM) | ≥ 20 µM | Cc1cc(NC(=O)N2CC(C)(C)Oc3ccc(-c4cccc(Cl)c4)nc32)cc(C)n1 [Compound 602]
13 | > 200% | A (EC1.5<1.0 μM) | ≥ 20 µM | Cc1cncc(NC(=O)N2CC(C)(C)Oc3ccc(-c4cccc(N5CCCC5)c4)nc32)c1 [Compound 603]
14 | > 200% | A (EC1.5<1.0 μM) | ≥ 20 µM | CC1(C)CN(C(=O)Nc2cncc(F)c2)c2nc(-c3cccc(N4CCCC4)c3)ccc2O1 [Compound 604]
15 | > 200% | A (EC1.5<1.0 μM) | ≥ 20 µM | Cc1cc(NC(=O)N2CC(C)(C)Oc3ccc(-c4cccc(N5CCCC5)c4)nc32)cc(C)n1 [Compound 605]
16 | > 200% | A (EC1.5<1.0 μM) | < 20 µM | O=C(Nc1ccnc(N2CCCC2)c1)N1CCCOc2ccc(-c3cccc(Cl)c3)nc21 [Compound 609]
17 | > 200% | A (EC1.5<1.0 μM) | < 20 µM | O=C(Nc1ccnc(N2CCC2)c1)N1CCCOc2ccc(-c3cccc(N4CCCC4)c3)nc21 [Compound 611]
18 | > 200% | A (EC1.5<1.0 μM) | ≥ 20 µM | Cc1cc(NC(=O)N2CCCOc3ccc(-c4cccc(N5CCCC5)c4)nc32)ccn1 [Compound 614]
19 | > 200% | A (EC1.5<1.0 μM) | < 20 µM | Cc1cc(NC(=O)N2CCCOc3ccc(-c4cccc(N5CCCC5)c4)nc32)cc(C)n1 [Compound 615]
20 | > 200% | A (EC1.5<1.0 μM) | < 20 µM | O=C(Nc1ccnc(N2CCC2)c1)N1CCCc2ccc(-c3cccc(Cl)c3)nc21 [Compound 617]

Second part, the compound before the results:

Row | SMILES | Emax [1] | EC1.5 [1] | IC50 [2]
21 | O=C(Nc1cccc(OC[C@H](O)CO)n1)N1CCOc2ccc(-c3cccc(C(F)(F)F)c3)nc21 [Compound 570, (R)—N-(6-(2,3-dihydroxypropoxy)pyridin-2-yl)-6-(3-(trifluoromethyl)phenyl)-2H-pyrido[3,2-b][1,4]oxazine-4(3H)-carboxamide] | > 200% | A (EC1.5<1.0 μM) | < 20 µM
22 | O=C(Nc1cccc(OC[C@@H](O)CO)n1)N1CCOc2ccc(-c3cccc(C(F)(F)F)c3)nc21 [Compound 571] | > 200% | A (EC1.5<1.0 μM) | < 20 µM
23 | O=C(Nc1cncc(F)c1)N1CCCc2ccc(-c3cccc(C(F)(F)F)c3)nc21 [Compound 586] | > 200% | A (EC1.5<1.0 μM) | < 20 µM
24 | Cc1cc(NC(=O)N2CCCc3ccc(-c4cccc(C(F)(F)F)c4)nc32)cc(C)n1 [Compound 587] | > 200% | A (EC1.5<1.0 μM) | < 20 µM
25 | Cc1cncc(NC(=O)N2CC(C)(C)Oc3ccc(-c4cccc(F)c4)nc32)c1 [Compound 591] | > 200% | A (EC1.5<1.0 μM) | < 20 µM
26 | Cc1cc(NC(=O)N2CC(C)(C)Oc3ccc(-c4cccc(F)c4)nc32)cc(C)n1 [Compound 592] | > 200% | A (EC1.5<1.0 μM) | ≥ 20 µM
27 | O=C(Nc1cncc(F)c1)N1CCCc2ccc(-c3cccc(F)c3)nc21 [Compound 594] |  | A (EC1.5<1.0 μM) | ≥ 20 µM
28 | O=C(Nc1ccnc(N2CCC2)c1)N1CCCc2ccc(-c3cccc(F)c3)nc21 [Compound 596] | > 200% | A (EC1.5<1.0 μM) | < 20 µM
29 | Cc1cncc(NC(=O)N2CC(C)(C)Oc3ccc(-c4cccc(Cl)c4)nc32)c1 [Compound 600] | > 200% | A (EC1.5<1.0 μM) | < 20 µM
30 | Cc1csc(NC(=O)N2CC(C)(C)Oc3ccc(-c4cccc(N5CCCC5)c4)nc32)n1 [Compound 606] | ≤ 200% | A (EC1.5<1.0 μM) | ≥ 20 µM
31 | Cc1csc(NC(=O)N2CCCOc3ccc(-c4cccc(Cl)c4)nc32)n1 [Compound 607] | > 200% | A (EC1.5<1.0 μM) | ≥ 20 µM
32 | O=C(Nc1ccnc(N2CCC2)c1)N1CCCOc2ccc(-c3cccc(Cl)c3)nc21 [Compound 608] | > 200% | A (EC1.5<1.0 μM) | < 20 µM
33 | O=C(Nc1ccnc(N2CCCC2)c1)N1CCCOc2ccc(-c3cccc(N4CCCC4)c3)nc21 [Compound 612] | > 200% | A (EC1.5<1.0 μM) | < 20 µM
34 | Cc1cc(NC(=O)N2CCCOc3ccc(-c4cccc(Cl)c4)nc32)ccn1 [Compound 613] | > 200% | A (EC1.5<1.0 μM) | < 20 µM
35 | Cc1csc(NC(=O)N2CCCc3ccc(-c4cccc(Cl)c4)nc32)n1 [Compound 616] | > 200% | A (EC1.5<1.0 μM) | ≥ 20 µM
36 | Cc1cc(NC(=O)N2CCOc3ccc(-c4cccc(N5CCCC5)c4)nc32)cc(C)n1 [Compound 618] | > 200% | A (EC1.5<1.0 μM) | ≥ 20 µM
37 | Cc1cc(NC(=O)N2CCOc3ccc(-c4cccc(N(C)C)c4)nc32)cc(C)n1 [Compound 619] | > 200% | A (EC1.5<1.0 μM) | < 20 µM
